The values below come from patent publication US20120232062A1, “AZAINDAZOLES TO TREAT FLAVIVIRIDAE VIRUS INFECTION” (EIGER BIOPHARMACEUTICALS, INC., priority 2009, published 2012).

The assay deals with HCV genotype 1b. Description: HCV 1b replicon luciferase assay. The format is cell-based. The text has this:
A suitable 1b HCV RNA replicon assay uses the Huh7 cell line which contains an HCV 1b RNA replicon with a stable luciferase (LUC) reporter. This construct contains modifications that make the cell line more robust and provides stable LUC expression for antiviral screening. The LUC reporter is used as an indirect measure of HCV replication. The activity of the LUC reporter is directly proportional to HCV RNA levels and positive control antiviral compounds behave comparably using LUC endpoints. […]
Fresh growth medium is prepared just before use. The container used in the procedure is a 10 cm diameter culture dish. HCV replicon reporter cell lines are used. Prepare complete medium: add FBS and appropriate additives as described in “Culture Media”, below. Pre-warm the medium in a 37° C. thermostat water bath. Remove the dish from a 37° C. CO2 incubator. Check the cell name and complete medium and passage number marked on the dish. Aspirate the medium carefully and add 1 ml PBS to rinse the cells. Remove and discard the solution and add 1 ml of 0.25% Trypsin/0.02% EDTA. Rinse the cells with the added Trypsin/EDTA to ensure all the cells have been rinsed. Remove the Trypsin/EDTA with a vacuum pump and incubate at 37° C. for 3-5 minutes. Examine the cell morphology under an inverted microscope to confirm that a single cell suspension is clearly visible. Add 3 ml of complete medium to the dish and suspend the cell by gentle pipetting. Count the cell numbers with a hematometer. Adjust cell density to 100 k/ml by adding appropriate volume of the complete medium. Add 100 μl of cell suspension to each well of a 96-well white plate; the cell density is thus 10 k per well. Mark the plate with cell name, passage number, seeding density, date and the name of the operator. Place the 96-well assay plate in 37° C. 5% CO2 incubator for 24 hours.
Compounds are prepared or provided at 25 mM in 100% DMSO. This is the compound stock solution. The dilution procedure should be performed in a cell culture hood. Dispense the stock solution into the second column of a 96-well plate. Prepare 9-step (10 concentrations total), 5-fold serial dilutions by transferring 10 μA of the compound into the next well containing 40 μA of DMSO. Repeat for all compounds. Aspirate 2 μl of the above compound solution from each well and add into 198 μl complete media using a 12-channel pipetter to obtain the 10-fold concentration compound solution with 1% DMSO, mix well.
Remove the 96-well assay plate from the 37° C./5% CO2 incubator, examine the cell morphology under an inverted microscope. In a cell culture hood, add 10 μl of the 10× concentration compounds solution into each well on the 96-well assay plate. All compound's dose responses are done in duplicate. The starting final concentration of the compounds is 25 μM, and DMSO final concentration 0.1%. Mark the plate with compound code(s) and concentrations. Place the 96-well assay plate into CO2 incubator for 48 hours. Add 30 μl of Stead-Glo Luciferase System (Promega) reagent to each well and mix by gentle shaking on a plate shaker for 5 minutes to allow throughout cell lysis. Measure the luminescence with Envision (Perkin Elmer) with an integration time of 2 seconds. Record and analyze the data.
The cell culture media is DMEM complete: DMEM (Life Technologies #41965-039) supplemented with 10% FCS, 2 mM Glutamin (Life Technologies #25030-024), Penicillin (100 IU/ml)/Streptomycin (100 μg/ml) (Life Technologies #15140-114) and 1× nonessential amino acids (Life Technologies #11140-035). G418 (“Geneticin”, Life Technologies): concentrations are given as weight per volume of the original substance. Specific activity of a typical batch is ca. 700 μg/mg as stated by the manufacturer. […] Therefore each new batch of G418 should be tested individually e.g. in an electroporation experiment using different selection conditions (0.2-1 mg/ml).

Where [1] appears, read: Hepatitis C virus, Huh-7, 48 h, Table 1, Huh7 HCV 1b replicon, luciferase reporter, 48 hours, read-out: 1b EC50.
Setting [2] is: Table 1, Huh7 HCV 1b replicon, luciferase reporter, 48 hours, read-out: 1b EC50.

Molecules are shown by their SMILES. Like-named read-outs stand apart in the source and are kept apart here. Bounds are passed on as bounds.

Consider `Clc1ccc(Cn2nc(COCCN3CCCCC3)c3ccc(N4CCCCCCC4)nc32)cc1` [compound 1204], for which the EC50 under setting [1] was 5.4 µM.
Consider `Cn1nc(C(=O)NC2CCNCC2)c2ccc(OCc3ccccc3-c3cccc(Cl)c3)nc21` [compound 1088], for which the EC50 under setting [1] was 1.4 µM.
`Cn1nc(C(=O)NC2CCNCC2)c2ccc(N3CCCCC3)nc21` [compound 861]: under setting [1], the concentration for a half-maximal effect (EC50) amounted to 7.3 µM.
Still for that read-out and setting: the same measure for `Cn1nc(CNC2CCCNC2)c2ccc(N3CCCCCC3)nc21` (centres unmarked) [compound 811]: 2.9 µM; for `Cn1nc(C(=O)N2CCC(N)CC2)c2ccc(N3CCCCCC3)nc21` [compound 829]: 8.7 µM.
On to `Cc1ccc(CN2CCC(NC(=O)c3nn(C)c4nc(N5CCCCCC5)ccc34)CC2)cc1` [compound 1039], for which the EC50 under setting [2] is 2.6 µM.
With `Cn1nc(C(=O)NC2CCNCC2)c2ccc(NC3CCCCCCC3)nc21` [compound 885], the concentration for a half-maximal effect (EC50) under setting [1] came to 0.889 µM.
`Clc1ccc(Cn2nc(CNC3CCNCC3)c3ccc(N4CCCCCC4)nc32)cc1` [compound 762]: the EC50 under setting [1] worked out at 2.9 µM.
Regarding `CCN1CCC(NC(=O)c2nn(C)c3nc(N4CCCCCCC4)ccc23)CC1C` (centres unmarked) [compound 1234], under setting [1], the EC50 amounted to 1.9 µM.
For the molecule `Cn1nc(C(=O)NC2CCN(C3CCCC3)CC2)c2ccc(N3CCCCCC3)nc21` [compound 1040], under setting [1], the concentration giving a half-maximal response (EC50) is 2.8 µM.
With `COC[C@@H]1CCCN1CCCc1nn(C)c2nc(N3CCCCCCC3)ccc12` [compound 1465], under setting [1], the EC50 is 4.7 µM.
As for `C=CCCCCn1nc(C(=O)NC2CCN(CC=C)CC2)c2ccc(N3CCCCCC3)nc21` [compound 1105], the concentration giving a half-maximal response (EC50) under setting [1] is 7.5 µM.
As for `CC(C)CN(C)c1ccc2c(C(=O)NC3CCN(CC4CCCCC4)CC3)nn(C)c2n1` [compound 1075], the half-maximal effective concentration (EC50) under setting [1] was 0.76 µM.
With `CN(c1ccc2c(C(=O)NC3CCNCC3)nn(C)c2n1)C1CCCCCC1` [compound 891], the EC50 under setting [1] was determined as 1.1 µM.
For `CCC(CC)Oc1ccc2c(C(=O)NC3CCNCC3)nn(Cc3ccc(Cl)cc3)c2n1` [compound 795], under setting [1], the EC50 was determined as 3.2 µM.
As for `CCN(c1ccc2c(C(=O)NC3CCN(CC4CCCCC4)CC3)nn(C)c2n1)C1CCCCCC1` [compound 1183], the concentration giving a half-maximal response (EC50) under setting [1] was 0.746 µM.
For the molecule `Cn1nc(C(=O)NC2CCNCC2)c2ccc(OCc3ccc(-c4ccccc4)cc3)nc21` [compound 974], under setting [1], the 50% effective concentration (EC50) was found to be 4.5 µM.
For `Cn1nc(C(=O)NC2CCNCC2)c2ccc(OCc3ccccc3-c3ccccc3)nc21` [compound 969], the EC50 under setting [1] came out at 1.3 µM.
Take `O=C(NCC1CCCNC1)c1nn(Cc2ccc(Cl)cc2)c2nc(N3CCCCCC3)ccc12` (centres unmarked) [compound 850]: the concentration for a half-maximal effect (EC50) under setting [1] was 2.5 µM.
For the molecule `Cn1nc(C(=O)NC2CCN(CC(F)F)CC2)c2ccc(NC3CCCCCCC3)nc21` [compound 1472], the half-maximal effective concentration (EC50) under setting [1] amounted to 1.4 µM.
Regarding `CC(C)n1nc(C(=O)NC2CCNCC2)c2ccc(N3CCCCCC3)nc21` [compound 857], under setting [1], the half-maximal effective concentration (EC50) was 3.1 µM.
Turning to `Cn1nc(CCCN2CC=CC2)c2ccc(N3CCCCCCC3)nc21` [compound 1461], the EC50 under setting [1] came out at 2.6 µM.
Regarding `Cn1nc(C(=O)NC2CCN(Cc3cccc(Cl)c3)CC2)c2ccc(N3CCCCCC3)nc21` [compound 1038], the concentration giving a half-maximal response (EC50) under setting [1] was determined as 3.4 µM.
`O=C(NC1CCNCC1)c1nn(CCc2ccc(Cl)cc2)c2nc(N3CCCCCC3)ccc12` [compound 855]: the EC50 under setting [1] came out at 3.7 µM.
As for `Cn1nc(-c2c[nH]c(CC3CCNCC3)n2)c2ccc(N3CCCCCC3)nc21` [compound 1054], the EC50 under setting [1] came to 8.6 µM.
Consider `Cn1nc(-c2nnc([C@@H]3CCCN3CCN3CCCCC3)o2)c2ccc(N3CCCCCCC3)nc21` [compound 1364], for which, under setting [1], the EC50 was found to be 2.2 µM.
For `CC1CC(NCc2nn(C)c3nc(N4CCCCCC4)ccc23)CCN1` (centres unmarked) [EBP909], the EC50 (Hepatitis C virus, 48 h, read-out: EC50 in the 48 hour 1b replicon assay, 48 hour) was less than 3 µM.
On to `Cn1nc(CCCN2CCC[C@@H]2CO)c2ccc(N3CCCCCCC3)nc21` [compound 1464], for which the EC50 under setting [1] was found to be 2 µM.
On to `CC1CC(NC(=O)c2nn(C)c3nc(N4CCCCCCC4)ccc23)CCN1CCCC1CCCCC1` (centres unmarked) [compound 1153], for which the half-maximal effective concentration (EC50) under setting [1] is 1.5 µM.
Take `CCC(CC)Oc1ccc2c(C(=O)NC3CCCNC3)nn(C)c2n1` (centres unmarked) [compound 815]: the EC50 under setting [1] turned out to be 6.6 µM.
Same read-out and setting: the same measure for `Cn1nc(NC(=O)C2CCNCC2)c2ccc(N3CCCCCC3)nc21` [compound 1035]: 5.7 µM; for `Cn1nc(C(=O)NC2CCN(CCC(F)(F)F)CC2)c2ccc(N3CCCCCCC3)nc21` [compound 1301]: 5.1 µM; for `O=C(NC1CCNCC1)c1nn(S(=O)(=O)C2CCCCC2)c2nc(N3CCCCCC3)ccc12` [compound 988]: 5.4 µM.
As to `O=C(NC1CCNCC1)c1nn2c3nc(ccc13)OC/C=C\CCCCC2` [compound 876], the EC50 under setting [1] came to 7.5 µM.
Still for that read-out and setting: the value for `O=C(CC1CCNCC1)Nc1nn(Cc2ccc(Cl)cc2)c2nc(N3CCCC3)ccc12` [compound 813] was 6.8 µM.
Turning to `Cn1nc(CN[C@H]2CCNC2)c2ccc(N3CCCCCC3)nc21` [compound 908], the EC50 under setting [1] came to 8.7 µM.
Regarding `Cn1nc(C(=O)NC2CCNCC2)c2ccc(OC3CCCCC3)nc21` [compound 913], under setting [2], the concentration for a half-maximal effect (EC50) was found to be 4.7 µM.
With `Cc1ccc(CN2CCC(NC(=O)c3nn(C)c4nc(N5CCCCCC5)ccc34)CC2)cc1` [compound 1045], the EC50 under setting [2] worked out at 1.1 µM.
As to `O=C(NC1CCNCC1)c1nnc2n(Cc3ccc(Cl)cc3)c(N3CCCCCC3)ccc1-2` [compound 709], the EC50 under setting [1] turned out to be 8.7 µM.
With `CC(C)CN(C)c1ccc2c(C(=O)NC3CCCNC3)nn(C)c2n1` (centres unmarked) [compound 686], the half-maximal effective concentration (EC50) under setting [1] worked out at 2.6 µM.
For `Cn1nc(CN2CCNCC2)c2ccc(N3CCCCCC3)nc21` [compound 812], the 50% effective concentration (EC50) under setting [1] amounted to 4.6 µM.
Consider `O=C(NC1CCNCC1)c1nn(Cc2ccc(Cl)cc2)c2nc(N3CCCCCC3)ccc12` [compound 704], for which the EC50 under setting [1] stood at 2.5 µM.
Take `Nc1nn(Cc2ccc(Cl)cc2)c2nc(N3CCCCCC3)ccc12` [compound 759]: the EC50 under setting [1] came to 8.6 µM.
Still for that read-out and setting: the value for `O=C(Nc1n[nH]c2nc(N3CCCCCC3)ccc12)C1CCCNC1` (centres unmarked) [compound 681] was 8.5 µM.
Regarding `Cn1nc(-c2cnc(C3CCCN(CC4CCCCC4)C3)s2)c2ccc(N3CCCCCCC3)nc21` (centres unmarked) [compound 1255], the half-maximal effective concentration (EC50) under setting [1] is 3 µM.
On the same count and under the same terms, the same measure for `O=C(NC1CCNCC1)c1nn(Cc2cccc(Cl)c2)c2nc(N3CCCCCC3)ccc12` [compound 854]: 7.2 µM; for `Cn1nc(C(=O)NC2CCN(CC3CCOCC3)CC2)c2ccc(NC3CCCCCCC3)nc21` [compound 1476]: 0.57 µM.
For `O=C(NC1CCCNC1)c1nn(-c2ccccc2)c2nc(N3CCCCCC3)ccc12` (centres unmarked) [compound 1349], under setting [1], the EC50 was 5 µM.
As to `COCC1CCN(CCN2CCC(NC(=O)c3nn(C)c4nc(N5CCCCCC5)ccc34)CC2)C1` (centres unmarked) [compound 1557], the EC50 under setting [1] turned out to be 2.1 µM.
Regarding `Cn1nc(-c2cnc(C(=O)NC3CCNCC3)s2)c2ccc(N3CCCCCC3)nc21` [compound 1127], the 50% effective concentration (EC50) under setting [1] is 2.9 µM.
Same read-out and setting: the value for `Cn1nc(NC(=O)c2ccncc2Cl)c2ccc(N3CCCCCC3)nc21` [compound 833] was 2.9 µM; that for `Cn1nc(CCCN2C[C@@H](O)[C@@H](O)C2)c2ccc(N3CCCCCCC3)nc21` [compound 1495] was 4.7 µM; that for `Cn1nc(-c2nnc(C3CCN(CCN4CCCCC4)C3)o2)c2ccc(N3CCCCCCC3)nc21` (centres unmarked) [compound 1368] was 4.8 µM.
In the case of `Cn1nc(C(=O)NC2CCNCC2)c2ccc(OCc3ccccc3Br)nc21` [compound 1065], the EC50 under setting [1] amounted to 3.3 µM.
Turning to `Cn1nc(C(=O)NC2CCNCC2)c2ccc(OCc3ccccc3-c3nc4ccccc4s3)nc21` [compound 1066], the EC50 under setting [1] was 2.5 µM.
Turning to `O=C(NC1CC2CCCC(C1)N2)c1nn(Cc2ccc(Cl)cc2)c2nc(N3CCCCCC3)ccc12` (centres unmarked) [compound 751], the EC50 under setting [1] turned out to be 2 µM.
